Laboratory results published in ChEMBL document CHEMBL1128819, “Chiral spirocyclic benzopyran potassium channel openers: Evidence for the active conformation of levcromakalim” (Bioorg Med Chem Lett, 1995).

Legend:
[1] = In vitro potassium channel opening activity in A10 (smooth muscle) cells; Inactive; assay type: functional, cell-based, Rattus norvegicus
[2] = In vitro potassium channel opening activity in A10 (smooth muscle) cells; assay type: functional, cell-based, Rattus norvegicus
Rattus norvegicus = experiment: Effective dose required for lowering of blood pressure, when administered intravenously to CUP-anesthetized rats; assay type: functional; conditions: iv

EC50 [1]	EC50 [2] [nM]	SMILES	ED30 (Rattus norvegicus) [µg/kg]
Not Active		CCCNC1=NC(=O)[C@]2(CC(C)(C)Oc3ccc(Br)cc32)N1	
	4	CCCNC1=NC(=O)[C@@]2(CC(C)(C)Oc3ccc(Br)cc32)N1	2.5
